In patent publication US4910194A, “Thienotriazolodiazepine compounds and pharmaceutical uses thereof” (Yoshitomi Pharmaceutical Industries, Ltd., priority 1988, dated 1990):
In brackets after ≈: the same amount, converted by molar mass.

Key:
[1] = system: PAF; conditions: literature; cited from earlier work
[2] = system: PAF-induced platelet aggregation; assay: Inhibitory effect on platelet aggregation in rabbits (in vitro test); format: cell-based; conditions: Oryctolagus cuniculus, rabbit PRP, PAF 1.8×10^-7 M, 37° C., read-out: Inhibition of PAF-induced platelet aggregation, IC50
Experimental: Blood samples to which was added 0.1 volume of 3.8% sodium citrate were collected from rabbits. Platelet rich plasma (PRP) was prepared by centrifuging the blood sample at 200×g for 10 minutes, and platelet poor plasma (PPP) was prepared by centrifuging the remaining blood sample at 1000×g for 10 minutes.
Aggregation ability was measured with a turbidimetric device (6-channel NKK Hematracer 1, model PAT-6A) according to the method of G. V. R. Born described in J. Physiology, vol. 168, p. 178 (1963). The aggregometer was adjusted in sensitivity to give light transmission values of 0 and 100% for PRP and PPP, respectively. With stirring at 1000 rpm, 0.3 μl of test compound solution or vehicle was added to 0.3 ml of PRP. After the mixture was kept at 37° C. for 2 minutes, to the mixture was added 3 μl PAF (Serdary Research Lab.) at the final concentration of 1.8×10^-7 M and the light transmission was recorded for 5 minutes.
In all experiments, PAF was dissolved in ethanol at the concentration of 100 μg/ml, and, when used, diluted with 0.9% saline solution.
The inhibition percentage of test compounds on platelet aggregation were calculated from the following formula by measuring the maximal light transmission in the presence and absence of the test compounds. [formula]
IC50 (μg/ml, concentration of 50% inhibition) was graphically determined.

[3] = system: PAF-induced platelet aggregation; assay: Inhibitory effect on platelet aggregation in rabbits (ex vivo test); conditions: Oryctolagus cuniculus, po, rabbit, 1 mg/kg orally, 24 hours, read-out: percentage of inhibition of platelet aggregation at 24 hours after oral administration
Experimental: Test compound (1 mg/kg) was orally administered to rabbit instead of adding it to PRP as in vitro test of Experiment 1, and then the citrated blood samples (9 volumes of blood+1 volume of 3.8% sodium citrate) were collected with the passage of time. Then, the blood samples were employed to determine the inhibitory effect on platelet aggregation according to Experiment 1. The percentage of inhibition at 24 hours after the oral administration of the compound of Example 2 was 100%.

[4] = system: PAF-induced lethal shock; assay: Effect on PAF-induced lethal shock in mice; format: in vivo; conditions: Mus musculus; male ICR mice, oral 1 hour before 80 μg/kg PAF i.v., survival over 24 hours; read-out: ED50 (p.o.), PAF-induced lethal shock
Experimental: The experiment was carried out according to the method of Young et al. described in Prostaglandins, Vol. 30, p. 545 (1985). Groups of 9 to 15 male ICR mice (Charles River) weighing 25-30 g were used. 80 μg/kg of PAF (Serdary Research Lab.) solution was intravenously administered in a lateral tail vein 1 hour after the oral administration of test compound (0.1 ml/10 g). […] The ED50 (mg/kg, p.o.) of the compound of Example 2 was 0.01 mg/kg.

Cc1nnc2n1-c1sc(CCC(=O)N3CCOCC3)cc1C(c1ccccc1Cl)=NC2 [4-(2-chlorophenyl)-9-methyl-6H-thieno-[3,2-f][1,2,4]triazolo[4,3-a][1,4]diazepine-2-propionic acid morpholide]
antagonistic activity on PAF [1]: exhibit antagonistic activity on PAF

CCc1cc2c(s1)-n1c(C)nnc1CN=C2c1ccccc1Cl [Etizolam, 6-(o-chlorophenyl)-8-ethyl-1-methyl-4H-s-triazolo[3,4-c]thieno[2,3-e][1,4]diazepine]
antagonistic activity on PAF [1]: exhibits antagonistic activity on PAF

Cc1nnc2n1-c1sc(CCc3ccc(C(O)C(C)C)cc3)cc1C(c1ccccc1Cl)=NC2C (stereo not drawn) [Example 2, 4-(2-chlorophenyl)-2-[2-(4-(1-hydroxy-2-methylpropyl)phenyl)ethyl]-6,9-dimethyl-6H-thieno-[3,2-f][1,2,4]triazolo[4,3-a][1,4]diazepine]
IC50 [2]: 0.01 to 0.03 µg/mL (≈ 0.0198 to 0.0594 µM)
inhibition at 1 mg/kg [3]: 100%
ED50 [4]: 0.01 mg/kg

Cc1nnc2n1-c1sc(CCc3ccc(CC(C)(C)O)cc3)cc1C(c1ccccc1Cl)=NC2C (stereo not drawn) [Example 3, 4-(2-chlorophenyl)-2-[2-(4-(2-hydroxy-2-methylpropyl)phenyl)ethyl]-6,9-dimethyl-6H-thieno[3,2-f][1,2,4]triazolo[4,3-a][1,4]diazepine]
IC50 [2]: 0.01 to 0.03 µg/mL (≈ 0.0198 to 0.0594 µM)

Cc1nnc2n1-c1sc(CCc3ccc(CC(C)CO)cc3)cc1C(c1ccccc1Cl)=NC2C (stereo not drawn) [Example 4, 4-(2-chlorophenyl)-2-[2-(4-(3-hydroxy-2-methylpropyl)phenyl)ethyl]-6,9-dimethyl-6H-thieno[3,2-f][1,2,4]triazolo[4,3-a][1,4]diazepine]
IC50 [2]: 0.03 to 0.1 µg/mL (≈ 0.0594 to 0.198 µM)

Cc1nnc2n1-c1sc(CCc3ccc(C(=O)C(C)(C)O)cc3)cc1C(c1ccccc1Cl)=NC2C (stereo not drawn) [Example 5, 4-(2-chlorophenyl)-2-[2-(4-(2-hydroxy-2-methylpropionyl)phenyl)ethyl]-6,9-dimethyl-6H-thieno[3,2-f][1,2,4]triazolo[4,3-a][1,4]diazepine]
IC50 [2]: 0.01 to 0.03 µg/mL (≈ 0.0193 to 0.0578 µM)

Cc1nnc2n1-c1sc(CCc3ccc(C(O)C(C)(C)O)cc3)cc1C(c1ccccc1Cl)=NC2C (stereo not drawn) [Example 6, 4-(2-chlorophenyl)-2-[2-(4-(1,2-dihydroxy-2-methylpropyl)phenyl)ethyl]-6,9-dimethyl-6H-thieno[3,2-f][1,2,4]triazolo[4,3-a][1,4]diazepine]
IC50 [2]: 0.03 to 0.1 µg/mL (≈ 0.0576 to 0.192 µM)
